One experiment has as its target T1, pancreatic lipase (Sus scrofa, UniProt P00591).
T1 construct: purchased SIGMA ADLRICH JAPAN K.K
T1 sequence (P00591 1-450): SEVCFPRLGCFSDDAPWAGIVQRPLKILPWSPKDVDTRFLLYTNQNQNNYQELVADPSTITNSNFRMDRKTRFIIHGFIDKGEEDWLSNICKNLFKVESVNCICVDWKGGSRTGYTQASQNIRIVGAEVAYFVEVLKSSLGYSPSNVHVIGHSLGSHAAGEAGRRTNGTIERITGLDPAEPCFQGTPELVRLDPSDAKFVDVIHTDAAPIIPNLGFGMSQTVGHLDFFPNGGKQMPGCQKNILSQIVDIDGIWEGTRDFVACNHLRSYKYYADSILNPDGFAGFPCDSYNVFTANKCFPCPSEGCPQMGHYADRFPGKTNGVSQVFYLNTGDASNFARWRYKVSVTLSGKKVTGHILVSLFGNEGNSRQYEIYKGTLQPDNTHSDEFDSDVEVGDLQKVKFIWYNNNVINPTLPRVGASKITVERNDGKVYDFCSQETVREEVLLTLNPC
As to the kind of experiment: Pancreatic lipase inhibitory activity (in vitro). The experiment is classed as biochemical. Conditions: swine pancreatic lipase 105.8 units/mL; FIG. 5. As to the method: The lipase inhibitory activity was analyzed by using a pancreatic lipase (product of […] JAPAN K.K, final concentration 105.8 units/mL) derived from the swine and a lipase kit-s (Dainippon Pharmaceutical Co., Ltd.).

The nature of experiment [1]: Hypotriglyceridemic action in blood of food-deprived mice. It counts as in vivo. As to conditions: 24-hour food-deprived mice, single oral dose, blood every hour; FIG. 9. How it is done: Then the effects on the blood triglyceride level are observed. The test method is herein described. First of all, take a blood sample from the veins of the 24-hour food-deprived mice (ddy. Male, 6-week-old). Half an hour later, orally apply each sample (10 mL./kg) suspended with the gum […] of 5 w/v % to the mice. Then, take a blood sample from the mice every one hour, and measure the blood triglyceride levels. Under the same condition, measure the blood triglyceride levels of the mice as a control, in which only gum […] orally administered.

The next experiment has as its target α-glucosidase. As to the kind of experiment: α-Glucosidase inhibitory activity. As to conditions: for IC50: rat small intestine acetone powder enzyme, 4-methylumbelliferyl-α-D-glucopyranoside 0.05 mM, 37° C., 30 minutes; for inhibitory activity of α-glucosidase (in words): rat small intestine enzyme, Chart 2. The experiment is classed as biochemical, rat. How it is done: The test method is herein described. First of all, mix the acetone powder of the rat small intestine with the pH7.0. 0.1M phosphate buffer solution (product of […] JAPAN K.K), which is approx. 10 times as much as the volume of the acetone powder, and obtain the enzyme liquid from the centrifuged supernatant. Use the 0.2 mM 4-methyl umbel […]-gluco-pyranoside ([…] JAPAN K.K) as a substrate. After dissolving each sample in the DMSO, prepare the two-fold dilution series with the 4% DMSO containing phosphate buffer solution. The diluted solution (50 μL/well) and buffered substrate (25 μL/well) are mixed in a microplate, and after preheating it at 37° C. for 10 minutes, add the enzyme liquid (25 μL/well) to induce the reaction at 37° C. for 30 minutes (final concentration of enzyme: 1 mg protein mL, final concentration of substrate: 0.05 mM). Then, add the 0.2M Na2CO3 (100 μL/well) to stop the reaction. Measure the fluorescence intensity (excitation wavelength: 366 nm, determined wavelength: […]) using a microplate reader.

In experiment [2] the test system is mouse adipose cell line (3T30L1). Kind of experiment: Effect on fat accumulation and differentiation of 3T3-L1 adipocytes. It counts as cell-based. As to conditions: 3T3-L1 after differentiation induction, 6 days with sample; FIG. 6. As to the method:
The test method is herein described. Cultivate the 3T30L1 adipose cell (5×10^4 cells/mL) in DMEM medium (high glucose) including fetal calf serum (10 wt %) for two days. Then, replace the medium with a different type of medium containing insulin ([…]), dexamethasone (0.25 μM) and isobutyl methyl xanthin (0.5 mM) for the differentiation induction. Two days later, replace the medium again with the different medium containing the samples and insulin (1 μg/mL), and cultivate them for six days replacing the medium every other day. After completing the cultivation, analyze the glycerol 3-phosphate dehydrogenase (GPDH) activity which is to be an indicator of the concentration of triglyceride in the cell and adipocyte differentiation.

A short description of experiment [3]: Suppressive effect on fatty liver (hepatic triglyceride and total cholesterol). The experiment is classed as in vivo. Conditions: mice, oral once a day for two weeks; FIG. 7. The source says:
The test method is herein described. Keep the mice (ddY, male, 5-week-old) in the laboratory for one week. Then, divide them into four groups and orally administer the samples suspended in the gum […] %) once a day for two weeks. On the final day of the test, remove the livers from the non-food-derived mice, and measure the amount of liver triglyceride and total cholesterol contained therein by using the test kit of Wako Pure Chemical Industries Ltd. of Japan.

Experiment [4] is described as follows: Diet effect on weight gain and body fat accumulation, mice fed sample-mixed food for 13 days. Conditions: mice ddY, sample mixed in food; for effect on accumulation of epididymal fat and perinephric fat weight: 13 days, FIG. 2; for effect on the weight gain: free feeding 13 days, extract 0.5/1.0 wt %, caffeine 0.05/0.1 wt %, chlorogenic acid 0.15/0.3 wt %, FIG. 1. The experiment is classed as in vivo. How it is done: The weight of each mouse was measured every other day during the feeding period, and the weight of the epididymal fat of each mouse on the last day of the feeding period. There was little difference in intake of the food among the control group (for only normal food given) and individual sample administration groups.

Another experiment concerns epididymal fat. Kind of experiment: Lipolysis effect, glycerol release of epididymal fat (in vitro). It counts as cell-based, rats. Conditions: rat epididymal fat, 37° C., three hours; extract at 1000 μg/mL; FIG. 8. How it is done: The test method is herein described. Remove the epididymal fat from male Wister rats, and incubate the fat in each sample solved in Medium 199 (medium culture) at a temperature of 37° C. for three hours. After completing the incubation, remove the fat and measure the amount of glycerol in the medium by using F-kit glycerol (product of Nippon Roche).

A short description of experiment [5]: Four-day weight gain test with existing dietetic materials (Chart 1). It counts as in vivo. As to conditions: mice, sample mixed in food. As to the method:
Salacia extract can be obtained by extracting the salacia root with solvent. Evening primrose extract can also be obtained by extracting the evening primrose with solvent. As a test method, as shown in Chart 1, a four-day experiment was conducted with the mice (ddY, male, 5-week-old) to freely eat the food (CE-2, CLEA Japan, Inc.) mixed with the sample as indicated in Chart 1. The weight of each mouse was measured on the first day and on the final day of the experimental period.

≈ marks a conversion by molar mass, not a printed value.

Consider `Cn1c(=O)c2c(ncn2C)n(C)c1=O` [Caffeine, caffeine], for which, at pancreatic lipase, the “pancreatic lipase inhibitory activity” value was “indicate a pancreatic lipase inhibitory activity”. Further, the “lowering effect on the blood-triglyceride” value in experiment [1] is on record as “strong lowering effect on the blood-triglyceride”. Moreover, on α-glucosidase, the IC50 – broadly, the concentration that gives 50% inhibition – is above 1000 µg/mL and the “inhibitory activity of α-glucosidase (in words)” value (from here on “inhibitory activity … (in words)”) was “does not indicate the inhibitory activity”. For the same compound, in experiment [2], the “effect on the GPDH activity” value is “mild inhibitory effect on the GPDH activity” and the “effect on the fat accumulation (triglyceride accumulation)” value was “mild inhibitory effect on the fat accumulation”. Besides, in experiment [3], the “effect on liver triglyceride” value is reported as “strong effect” and the “liver total cholesterol value” is “almost the same as the value of the control group”. For the same compound, in experiment [4], the “effect on accumulation of epididymal fat and perinephric fat weight” value is reported as “slightly indicates a suppressive effect on the accumulation of the fat”; the “effect on the weight gain” value is reported as “do not have a sufficient suppressive effect on the weight gain”.

With `O=C(/C=C/c1ccc(O)c(O)c1)O[C@@H]1C[C@](O)(C(=O)O)C[C@@H](O)[C@H]1O` [Chlorogenic acid, chlorogenic acid], the “pancreatic lipase inhibitory activity” value on pancreatic lipase is on record as “indicate a pancreatic lipase inhibitory activity”. Also, the “lowering effect on the blood-triglyceride” value in experiment [1] is listed as “lowering effect on the blood-triglyceride identical to the effect of synephrine”. Also, the “lipolysis effect (glycerol release)” value in the experiment on epididymal fat was “mild lipolysis effect”. In addition, the “inhibitory activity … (in words)” value in the experiment on α-glucosidase is “strong inhibitory activity of α-glucosidase”. Moreover, in experiment [2], the “effect on the GPDH activity” value is recorded as “mild inhibitory effect on the GPDH activity” and the “effect on the fat accumulation (triglyceride accumulation)” value was “mild inhibitory effect on the fat accumulation”. In experiment [3], the “effect on liver triglyceride” value was “strong effect” and the “liver total cholesterol value” is reported as “almost the same as the value of the control group”. For the same compound, in experiment [4], the “effect on accumulation of epididymal fat and perinephric fat weight” value is listed as “slightly indicates a suppressive effect on the accumulation of the fat”; the “effect on the weight gain” value is on record as “do not have a sufficient suppressive effect on the weight gain”.

As for `O=C(O)/C=C/c1ccc(O)c(O)c1` [Coffeic acid], on α-glucosidase, the “IC50” value was determined as 100 µg/mL (≈ 0.555 mM) and the “inhibitory activity … (in words)” value was “strong inhibitory activity of α-glucosidase”.

On to `O=C(O)[C@]1(O)C[C@@H](O)[C@@H](O)[C@H](O)C1` [Quinic acid, quinic acid], for which, on α-glucosidase, the “IC50” value is above 1000 µg/mL and the “inhibitory activity … (in words)” value is reported as “does not indicate the inhibitory activity”.

On to `c1cc2c(cc1[C@H]1OC[C@H]3[C@@H]1CO[C@@H]3c1ccc3c(c1)OCO3)OCO2` [Sesamine, sesamine], for which the “Weight (g) 4th day” value in experiment [5] (4th day, average ± standard error, n = 5) was determined as 30.91 ± 1.79 g. For the same compound, in experiment [5] (four days), the “Difference in the weight compared to the control” value is -0.83 g and the “Weight increase” value was 3.55 g.

For the origin of these results see patent US8802164B2 (Oryza Oil & Fat Chemical Co., Ltd., priority 2003, dated 2014).
